Test results from patent US20090203711A1, “Inhibitors of P38 Map Kinase” (CHROMA THERAPEUTICS LTD., priority 2006, published 2009).
pIC50: −log10 of the molar value. Counter-ions that a name gives are not always drawn.

Experiments:
THP-1 cells = assay: LPS-stimulation of THP-1 cells, TNF-α release by ELISA; type: cell-based; conditions: Homo sapiens, LPS 1 μg/ml, 6 hrs, inhibitor added 2 hrs before, read-out: Inhibitor activity versus THP-1 TNFα release
Procedure: LPS-Stimulation of THP-1 Cells
THP-1 cells were plated in 100 μl at a density of 4×10^4 cells/well in V-bottomed 96 well tissue culture treated plates and incubated at 37° C. in 5% CO2 for 16 hrs. 2 hrs after the addition of the inhibitor in 100 μl of tissue culture media, the cells were stimulated with LPS (E coli strain 005:B5, Sigma) at a final concentration of 1 μg/ml and incubated at 37° C. in 5% CO2 for 6 hrs. TNF-α levels were measured from cell-free supernatants by sandwich ELISA (R&D Systems #QTA00B)

human whole blood = assay: LPS-stimulation of human whole blood, TNF-α release by ELISA; type: cell-based; conditions: LPS 100 ng/ml, 6 hrs, inhibitor added 2 hrs before, read-out: Inhibitor activity versus human whole blood TNFα release
Procedure: LPS-Stimulation of Human Whole Blood
Whole blood was taken by venous puncture using heparinised vacutainers (Becton Dickinson) and diluted in an equal volume of RPMI 1640 tissue culture media (Sigma). 100 μl was plated in V-bottomed 96 well tissue culture treated plates. 2 hrs after the addition of the inhibitor in 100 μl of RPMI 1640 media, the blood was stimulated with LPS (E. coli strain 005:B5, Sigma) at a final concentration of 100 ng/ml and incubated at 37° C. in 5% CO2 for 6 hrs. TNF-α levels were measured from cell-free supernatants by sandwich ELISA (R&D Systems #QTA00B)

Row | SMILES | pIC50 (human whole blood) | pIC50 (THP-1 cells)
1 | CC(C)(C)OC(=O)N[C@@H](CCCOc1cc(F)c(-n2c(N)c(C(=O)c3ccc(F)cc3F)ccc2=O)c(F)c1)C(=O)OC1CCCC1 [Intermediate 1, Cyclopentyl (S)-5-{4-[6-Amino-5-(2,4-difluorobenzoyl)-2-oxo-2H-pyridin-1-yl]-3,5-difluorophenoxy}-2-tert-butoxycarbonylamino Pentanoate] | – | 6.00 to 7.00
2 | CC(C)(C)OC(=O)N[C@@H](CCOc1cc(F)c(-n2c(N)c(C(=O)c3ccc(F)cc3F)ccc2=O)c(F)c1)C(=O)OC1CCCC1 [Intermediate 2, Cyclopentyl (S)-4-{4-[6-Amino-5-(2,4-difluorobenzoyl)-2-oxo-2H-pyridin-1-yl]-3,5-difluorophenoxy}-2-tert-butoxycarbonylaminobutyrate] | – | 6.00 to 7.00

More lines, main results first:

Row | pIC50 (human whole blood) | SMILES | pIC50 (THP-1 cells)
3 | 6.00 to 7.00 | Nc1c(C(=O)c2ccc(F)cc2)ccc(=O)n1-c1c(F)cc(OCCC[C@H](N)C(=O)OC2CCCC2)cc1F [Example 7] | –
4 | 6.00 to 7.00 | CC(C)(C)OC(=O)[C@@H](N)CCCOc1cc(F)c(-n2c(N)c(C(=O)c3ccc(F)cc3F)ccc2=O)c(F)c1 [Example 6, Tert-Butyl (S)-2-Amino-5-{4-[6-amino-5-(2,4-difluorobenzoyl)-2-oxo-2H-Pyridin-1-yl]-3,5-difluorophenoxy}pentanoate] | –
5 | 6.00 to 7.00 | Nc1c(C(=O)c2ccc(F)cc2F)ccc(=O)n1-c1c(F)cc(OCC[C@@H](N)C(=O)OC2CCCC2)cc1F [Example 4, Cyclopentyl (R)-2-Amino-4-{4-[6-amino-5-(2,4-difluorobenzoyl)-2-oxo-2H-pyridin-1-yl]-3,5-difluorophenoxy}butanoate Trifluoroacetate] | –
